Measured values: patent publication US10501453B2, “Benzothiazole or benzoxazole compounds as SUMO activators” (Icahn School of Medicine at Mount Sinai, priority 2012, dated 2019)

Assays:
[1] = biological target: T1, SUMO E1 enzyme (Homo sapiens, UniProt Q9UBT2); test: ATP-dependent activation of SUMO-1 (ATP hydrolysis); format: biochemical
T1 sequence (Q9UBT2 1-640): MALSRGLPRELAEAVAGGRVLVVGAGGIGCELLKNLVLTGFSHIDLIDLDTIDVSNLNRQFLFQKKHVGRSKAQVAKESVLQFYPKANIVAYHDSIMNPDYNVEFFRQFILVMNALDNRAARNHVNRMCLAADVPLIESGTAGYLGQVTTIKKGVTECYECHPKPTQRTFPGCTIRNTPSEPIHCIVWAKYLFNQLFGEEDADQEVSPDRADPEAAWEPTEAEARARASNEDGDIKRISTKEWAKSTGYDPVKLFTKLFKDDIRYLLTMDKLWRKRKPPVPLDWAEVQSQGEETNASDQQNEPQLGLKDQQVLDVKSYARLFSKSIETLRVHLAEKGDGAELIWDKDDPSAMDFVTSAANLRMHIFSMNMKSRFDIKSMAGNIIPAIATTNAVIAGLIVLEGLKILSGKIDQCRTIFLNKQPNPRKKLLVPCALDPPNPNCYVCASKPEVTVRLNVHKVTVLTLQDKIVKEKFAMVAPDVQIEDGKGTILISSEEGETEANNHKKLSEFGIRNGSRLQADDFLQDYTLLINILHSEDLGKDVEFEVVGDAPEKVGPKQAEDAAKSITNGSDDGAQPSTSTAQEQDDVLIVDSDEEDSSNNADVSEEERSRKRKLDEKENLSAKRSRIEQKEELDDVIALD
T1 sequence (Q9UBE0 1-346): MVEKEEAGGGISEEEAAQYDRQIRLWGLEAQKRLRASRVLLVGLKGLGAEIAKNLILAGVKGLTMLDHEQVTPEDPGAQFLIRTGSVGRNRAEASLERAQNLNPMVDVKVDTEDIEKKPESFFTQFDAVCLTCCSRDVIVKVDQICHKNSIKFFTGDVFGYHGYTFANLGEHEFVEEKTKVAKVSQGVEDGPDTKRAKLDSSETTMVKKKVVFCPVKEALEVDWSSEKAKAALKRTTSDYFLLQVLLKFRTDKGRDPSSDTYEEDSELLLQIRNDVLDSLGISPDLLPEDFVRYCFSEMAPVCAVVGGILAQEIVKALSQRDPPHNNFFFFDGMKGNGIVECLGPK

[2] = system: adult rat ventricular myocytes (ARVMs); test: Cell shortening/re-lengthening and calcium transient of ARVMs (IonOptix); format: cell-based
Description: Calcium-tolerant adult rat ventricular myocytes (ARVMs) were obtained from hearts of male Sprague-Dawley rats (250 to 300 g). The heart was excised and perfused with a standard enzymatic technique. ARVMs were plated on multi-chambered plates or culture dishes, pre-coated with laminin 2 μg/cm^2, at a density of 10^5 cells/cm^2 in DMEM without L-glutamine supplemented with 10 mmol/l HEPES, 3.7 mg/ml NaHCO3, 1 mg/ml glucose, 0.11 mg/ml sodium pyruvate, 2 mg/ml bovine serum albumin, 2 mmol/1 L-camitine, 5 mmol/1 creatine, 5 mmol/1 taurine, 1% penicillin-streptomycin, and 1% gentamycin. Following isolation, cells were allowed to settle for 1 hour. Cultures were incubated at 37° C., in an atmosphere of 5% CO2-95% air. Fresh medium was added gently as medium was being drawn off until the cultures had been thoroughly washed. Only quiescent, rod-shape cardiac myocytes were selected for IonOptix experiments.
Each compound was added at 10 μM. DMSO was used as a control. After 24 hours at 37° C., SERCA2a SUMOylation and functional analysis were determined.
Mechanical properties of ARVMs were assessed using an IonOptix MyoCam® system (IonOptix, Milton, Mass.). In brief, cells were placed in a Warner chamber mounted on the stage of an inverted microscope (Olympus, IX-70) and superfused (1 ml/min at 30° C.) with a buffer containing 131 mM NaCl, 4 mM KCl, 1 mM CaCh, 1 mM MgCh, 10 mM glucose, and 10 mM HEPES, pH 7.4. ARVMs were field stimulated with suprathreshold voltage and at a frequency of 0.5 Hz. […] SoftEdge software (IonOptix) was used to capture changes in cell length during shortening and re-lengthening.
ARVMs were placed in a chamber on an Olympus IX-70 inverted microscope and imaged through a Fluor 40× oil objective. ARVMs were exposed to light emitted by a 75 W lamp and passed through either a 360 or a 380 nm filter (bandwidths were ±15 nm), while being stimulated to contract at 0.5 Hz. Fluorescence emissions were detected between 480 and 520 nm by a photomultiplier tube after first illuminating cells at 360 nm for 0.5 s then at 380 nm for the duration of the recording protocol (333 Hz sampling rate). The 360 nm excitation scan was repeated at the end of the protocol and qualitative changes in intracellular Ca^2+ concentration ((Ca^2+]i) were inferred from the ratio of the fluorescence intensity at two wavelengths.
The effects of the Example compound was examined on isolated rat cardiomyocytes shortening and relaxation parameters. […] Effects of Example 1 on mechanical properties of the ARVMs were assessed using a video-based edge detection system (IonOptix). The time constant of the increase of force during the stretch decreased (tau), percentage of peak shortening (PS), maximal rate of relaxation and contraction were analyzed at 24 hrs postincubation of the compounds in culture media (N=10 ARVMs). The mechanical data were analyzed with student's t-test (FIG. 2A, P<0.05 compared to the DMSO treated cells). SERCA2a SUMOylation profiling was analyzed in a same set of ARVMs (FIG. 2B, WCL, whole cell lysates; S-SERCA2a, SUMOylated SERCA2a).

Question: For `COc1ccc(-c2nnc(Nc3nc4c(OC)cccc4s3)o2)cc1` [Example 1, N-(4-methoxybenzo[d]thiazol-2-yl)-5-(4-methoxyphenyl)-1,3,4-oxadiazol-2-amine], which EC50 [1] is on record?
Answer: 40.5 ± 4.4 µM

Question: What about the “Tau value (dose response)” value ([2]; 10 μM) of the same molecule?
Answer: 1.0 ± 0.1 ms

Question: What about the “effects on mechanical properties of ARVMs (inotropic, lusitropic)” value ([2]; 24 hrs, versus DMSO) of the same molecule?
Answer: positive inotropic and lusitropic effects

Question: What about the “Tau (rate of transient calcium decay)” value ([2]; isolated adult cardiomyocytes, DMSO 2.4±0.2, n=10) of the same molecule?
Answer: 1.8 ± 0.2 ms

Question: What about the Peak shortening ([2]; isolated adult cardiomyocytes, DMSO 3.0±0.8, n=10) of the same molecule?
Answer: 12.0±0.8%

Question: What about the “Maximal rate of relaxation” value ([2]; isolated adult cardiomyocytes, DMSO 54.0±2.4, n=10) of the same molecule?
Answer: 210.7±19.4 μm/sec

Question: And the “Maximal rate of contraction” value ([2]; isolated adult cardiomyocytes, DMSO −64.0±7.9, n=10)?
Answer: −185.5±6.5 μm/sec
